Source: PubChem BioAssay AID1963962 (Molecular Pharmacology Branch, DTP, NCI, 2024)

Test system: 967376-340-R-J2-PDC multicell spheroid viability
Test: Anticancer human tumor 967376-340-R-J2-PDC patient-derived colon adenocarcinoma cell line growth inhibition [PI3K]
Settings: for IC50: curve of first compound; for viability, T/C: stronger effect = lower value
Summary of the method: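 Complex 3D spheroids (cancer cells + endothelial HUVEC + mesenchymal stem cells); drug pairs of targeted agent x inavolisib/alpelisib/duvelisib/copanlisib; half-log series from ~Cmax, max 10 microM if Cmax unknown; endpoint viability.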

[1] = second compound 0.0316 µM, first compound 0.0316 µM
[2] = second compound 0.0316 µM, first compound 0.1 µM
[3] = second compound 0.0316 µM, first compound 0.316 µM
[4] = second compound 0.0316 µM, first compound 1 µM
[5] = second compound 0.0316 µM, first compound 3.16 µM
[6] = second compound 0.0316 µM, first compound 10 µM
[7] = second compound 0.1 µM, first compound 0.0316 µM
[8] = second compound 0.1 µM, first compound 0.1 µM
[9] = second compound 0.1 µM, first compound 0.316 µM
[10] = second compound 0.1 µM, first compound 1 µM
[11] = second compound 0.1 µM, first compound 3.16 µM
[12] = second compound 0.1 µM, first compound 10 µM
[13] = second compound 0.316 µM, first compound 0.0316 µM
[14] = second compound 0.316 µM, first compound 0.1 µM
[15] = second compound 0.316 µM, first compound 0.316 µM
[16] = second compound 0.316 µM, first compound 1 µM
[17] = second compound 0.316 µM, first compound 3.16 µM
[18] = second compound 0.316 µM, first compound 10 µM
[19] = second compound 1 µM, first compound 0.0316 µM
[20] = second compound 1 µM, first compound 0.1 µM
[21] = second compound 1 µM, first compound 0.316 µM
[22] = second compound 1 µM, first compound 1 µM
[23] = second compound 1 µM, first compound 3.16 µM
[24] = second compound 1 µM, first compound 10 µM
[25] = second compound 3.16 µM, first compound 0.0316 µM
[26] = second compound 3.16 µM, first compound 0.1 µM
[27] = second compound 3.16 µM, first compound 0.316 µM
[28] = second compound 3.16 µM, first compound 1 µM
[29] = second compound 3.16 µM, first compound 3.16 µM
[30] = second compound 3.16 µM, first compound 10 µM
[31] = second compound 10 µM, first compound 0.0316 µM
[32] = second compound 10 µM, first compound 0.1 µM
[33] = second compound 10 µM, first compound 0.316 µM
[34] = second compound 10 µM, first compound 1 µM
[35] = second compound 10 µM, first compound 3.16 µM
[36] = second compound 10 µM, first compound 10 µM
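Further: spheroids exposed to agents for 7 days before read-out.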
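Wherever viability, T/C is given: luminescence used as surrogate of cell viability.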

Q: How did the IC50 (second compound 0.0316 µM) turn out when `C#Cc1c(F)ccc2cc(O)cc(-c3ncc4c(N5CC6CCC(C5)N6)nc(OCC56CCCN5CC(F)C6)nc4c3F)c12` (stereo unspecified) + CC(Nc1ncnc2nc[nH]c12)c1cc2cccc(Cl)c2c(=O)n1-c1ccccc1 was run?
A: > 10 µM

Q: And the IC50 (second compound 0.1 µM)?
A: > 10 µM

Q: And the IC50 (second compound 0.316 µM)?
A: > 10 µM

Q: What about the IC50 (second compound 1 µM) of the same molecule?
A: > 10 µM

Q: And the IC50 (second compound 3.16 µM)?
A: > 10 µM

Q: What about the IC50 (second compound 10 µM) of the same molecule?
A: > 10 µM

Q: And the viability, T/C [1]?
A: 103%

Q: And the viability, T/C [2]?
A: 113%

Q: And the viability, T/C [3]?
A: 94.2%

Q: What about the viability, T/C [4] of the same molecule?
A: 85.8%

Q: And the viability, T/C [5]?
A: 85.5%

Q: What about the viability, T/C [6] of the same molecule?
A: 53.8%

Q: What about the viability, T/C [7] of the same molecule?
A: 99.8%

Q: And the viability, T/C [8]?
A: 110%

Q: What about the viability, T/C [9] of the same molecule?
A: 80.5%

Q: What about the viability, T/C [10] of the same molecule?
A: 97.5%

Q: And the viability, T/C [11]?
A: 77%

Q: And the viability, T/C [12]?
A: 88.9%

Q: What about the viability, T/C [13] of the same molecule?
A: 104%

Q: What about the viability, T/C [14] of the same molecule?
A: 97.2%

Q: What about the viability, T/C [15] of the same molecule?
A: 99.7%

Q: And the viability, T/C [16]?
A: 90.6%

Q: What about the viability, T/C [17] of the same molecule?
A: 99.5%

Q: What about the viability, T/C [18] of the same molecule?
A: 78.8%

Q: What about the viability, T/C [19] of the same molecule?
A: 96.5%

Q: And the viability, T/C [20]?
A: 110%

Q: What about the viability, T/C [21] of the same molecule?
A: 109%

Q: And the viability, T/C [22]?
A: 93%

Q: And the viability, T/C [23]?
A: 72.8%

Q: What about the viability, T/C [24] of the same molecule?
A: 70.8%

Q: And the viability, T/C [25]?
A: 106%

Q: And the viability, T/C [26]?
A: 92.4%

Q: And the viability, T/C [27]?
A: 94.6%

Q: And the viability, T/C [28]?
A: 71.2%

Q: What about the viability, T/C [29] of the same molecule?
A: 78.3%

Q: And the viability, T/C [30]?
A: 71.8%

Q: And the viability, T/C [31]?
A: 84.1%

Q: And the viability, T/C [32]?
A: 76.8%

Q: And the viability, T/C [33]?
A: 78.8%

Q: And the viability, T/C [34]?
A: 61.6%

Q: And the viability, T/C [35]?
A: 59.5%

Q: And the viability, T/C [36]?
A: 61.5%

Q: Which results are given for `C=CC(=O)N1CCN(c2nc(=O)n(-c3c(C)ccnc3C(C)C)c3nc(-c4c(O)cccc4F)c(F)cc23)C(C)C1` (stereo unspecified) + CC(Nc1ncnc2nc[nH]c12)c1cc2cccc(Cl)c2c(=O)n1-c1ccccc1?
A: IC50 (second compound 0.0316 µM): > 10 µM; IC50 (second compound 0.1 µM): > 10 µM; IC50 (second compound 0.316 µM): > 10 µM; IC50 (second compound 1 µM): > 10 µM; IC50 (second compound 3.16 µM): > 10 µM; IC50 (second compound 10 µM): > 10 µM; viability, T/C [1]: 95.8%; viability, T/C [2]: 104%; viability, T/C [3]: 99.1%; viability, T/C [4]: 102%; viability, T/C [5]: 96.6%; viability, T/C [6]: 108%; viability, T/C [7]: 123%; viability, T/C [8]: 108%; viability, T/C [9]: 97.7%; viability, T/C [10]: 94.2%; viability, T/C [11]: 106%; viability, T/C [12]: 104%; viability, T/C [13]: 105%; viability, T/C [14]: 107%; viability, T/C [15]: 107%; viability, T/C [16]: 104%; viability, T/C [17]: 86.7%; viability, T/C [18]: 94.8%; viability, T/C [19]: 107%; viability, T/C [20]: 98.3%; viability, T/C [21]: 100%; viability, T/C [22]: 97.8%; viability, T/C [23]: 105%; viability, T/C [24]: 76.3%; viability, T/C [25]: 79.7%; viability, T/C [26]: 91.6%; viability, T/C [27]: 81.2%; viability, T/C [28]: 98%; viability, T/C [29]: 96.2%; viability, T/C [30]: 86.6%; viability, T/C [31]: 75.7%; viability, T/C [32]: 83.9%; viability, T/C [33]: 75.4%; viability, T/C [34]: 78.7%; viability, T/C [35]: 94.4%; viability, T/C [36]: 91.9%

Q: For `CC(Cn1ccc(-c2ccc(C#N)c(Cl)c2)n1)NC(=O)c1cc(C(C)O)[nH]n1` (stereo unspecified) + CC(Nc1ncnc2nc[nH]c12)c1cc2cccc(Cl)c2c(=O)n1-c1ccccc1, which IC50 (second compound 0.0316 µM) is on record?
A: > 10 µM

Q: And the IC50 (second compound 0.1 µM)?
A: > 10 µM

Q: And the IC50 (second compound 0.316 µM)?
A: > 10 µM

Q: And the IC50 (second compound 1 µM)?
A: > 10 µM

Q: What about the IC50 (second compound 3.16 µM) of the same molecule?
A: > 10 µM

Q: What about the IC50 (second compound 10 µM) of the same molecule?
A: > 10 µM

Q: And the viability, T/C [1]?
A: 95.7%

Q: What about the viability, T/C [2] of the same molecule?
A: 87.5%

Q: And the viability, T/C [3]?
A: 89.4%

Q: And the viability, T/C [4]?
A: 110%

Q: And the viability, T/C [5]?
A: 87.5%

Q: What about the viability, T/C [6] of the same molecule?
A: 91.8%

Q: What about the viability, T/C [7] of the same molecule?
A: 117%

Q: And the viability, T/C [8]?
A: 102%

Q: And the viability, T/C [9]?
A: 104%

Q: What about the viability, T/C [10] of the same molecule?
A: 94.3%

Q: What about the viability, T/C [11] of the same molecule?
A: 81.8%

Q: What about the viability, T/C [12] of the same molecule?
A: 85.6%

Q: What about the viability, T/C [13] of the same molecule?
A: 112%

Q: And the viability, T/C [14]?
A: 97.3%

Q: And the viability, T/C [15]?
A: 86.7%

Q: What about the viability, T/C [16] of the same molecule?
A: 87.5%

Q: And the viability, T/C [17]?
A: 89%

Q: What about the viability, T/C [18] of the same molecule?
A: 78.6%

Q: What about the viability, T/C [19] of the same molecule?
A: 107%

Q: And the viability, T/C [20]?
A: 83.3%

Q: What about the viability, T/C [21] of the same molecule?
A: 91.9%

Q: What about the viability, T/C [22] of the same molecule?
A: 83.8%

Q: What about the viability, T/C [23] of the same molecule?
A: 83.9%

Q: What about the viability, T/C [24] of the same molecule?
A: 82.4%

Q: What about the viability, T/C [25] of the same molecule?
A: 95.4%

Q: What about the viability, T/C [26] of the same molecule?
A: 103%

Q: And the viability, T/C [27]?
A: 91.5%

Q: And the viability, T/C [28]?
A: 87.5%

Q: And the viability, T/C [29]?
A: 69.2%

Q: And the viability, T/C [30]?
A: 92.5%

Q: And the viability, T/C [31]?
A: 91.5%

Q: And the viability, T/C [32]?
A: 88.6%

Q: What about the viability, T/C [33] of the same molecule?
A: 90%

Q: What about the viability, T/C [34] of the same molecule?
A: 103%

Q: What about the viability, T/C [35] of the same molecule?
A: 83.7%

Q: And the viability, T/C [36]?
A: 80.7%
